Source: PubChem BioAssay (NCI)
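Protocol summary: plate cells (96-well), add compound at 5 concentrations, incubate 48 h, interpolate endpoints linearly. GI50 is the concentration that inhibits growth by half. The concentration for full growth arrest is given as TGI.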

How the values were obtained:
Assay in all cases: DTP human tumour cell line panel, 48 h
SNB-19 CNS = system: SNB-19 CNS
HCT-116 colon = system: HCT-116 colon
K-562 leukemia = system: K-562 leukemia
MDA-MB-435 = system: MDA-MB-435
TK-10 renal = system: TK-10 renal
IGROV1 ovarian = system: IGROV1 ovarian
NCI-H23 lung = system: NCI-H23 lung
A549 NSCLC = system: A549 NSCLC
SF-539 CNS = system: SF-539 CNS
T-47D breast = system: T-47D breast
PC-3 prostate = system: PC-3 prostate
MCF7 breast = system: MCF7 breast
RPMI-8226 leukemia = system: RPMI-8226 leukemia
A498 renal = system: A498 renal
COLO 205 colon = system: COLO 205 colon
HOP-92 NSCLC = system: HOP-92 NSCLC
NCI-H226 lung = system: NCI-H226 lung
SW-620 colon = system: SW-620 colon
HT29 colon = system: HT29 colon
OVCAR-3 ovarian = system: OVCAR-3 ovarian
EKVX NSCLC = system: EKVX NSCLC
SN12C renal = system: SN12C renal
SF-268 CNS = system: SF-268 CNS
HS 578T breast = system: HS 578T breast
SNB-75 CNS = system: SNB-75 CNS
OVCAR-8 ovarian = system: OVCAR-8 ovarian
DU-145 prostate = system: DU-145 prostate
KM12 colon = system: KM12 colon
UACC-62 melanoma = system: UACC-62 melanoma
HCC-2998 colon = system: HCC-2998 colon
M14 melanoma = system: M14 melanoma
OVCAR-5 ovarian = system: OVCAR-5 ovarian
SK-MEL-28 melanoma = system: SK-MEL-28 melanoma
ACHN renal = system: ACHN renal
786-0 renal = system: 786-0 renal
U251 CNS = system: U251 CNS
CAKI-1 renal = system: CAKI-1 renal
NCI-H460 lung = system: NCI-H460 lung
HCT-15 colon = system: HCT-15 colon
SK-OV-3 ovarian = system: SK-OV-3 ovarian
LOX IMVI melanoma = system: LOX IMVI melanoma
SK-MEL-5 melanoma = system: SK-MEL-5 melanoma
MALME-3M melanoma = system: MALME-3M melanoma
UO-31 renal = system: UO-31 renal
HL-60(TB) leukemia = system: HL-60(TB) leukemia
NCI-H522 lung = system: NCI-H522 lung
MDA-MB-231 breast = system: MDA-MB-231 breast
OVCAR-4 ovarian = system: OVCAR-4 ovarian
MOLT-4 leukemia = system: MOLT-4 leukemia
SF-295 CNS = system: SF-295 CNS
HOP-62 NSCLC = system: HOP-62 NSCLC
RXF 393 renal = system: RXF 393 renal
UACC-257 melanoma = system: UACC-257 melanoma
BT-549 breast = system: BT-549 breast
SK-MEL-2 melanoma = system: SK-MEL-2 melanoma
CCRF-CEM leukemia = system: CCRF-CEM leukemia
SR leukemia = system: SR leukemia
NCI/ADR-RES ovarian = system: NCI/ADR-RES ovarian

COc1ccc(/C=C2\COc3ccc(O)c(O)c3C2=O)c(OC)c1OC
GI50 (SNB-19 CNS): 3.69 µM
TGI (SNB-19 CNS): 15.7 µM
GI50 (HCT-116 colon): 1.75 µM
TGI (HCT-116 colon): 3.96 µM
GI50 (K-562 leukemia): 2.11 µM
TGI (K-562 leukemia): > 100 µM
GI50 (MDA-MB-435): 2.21 µM
TGI (MDA-MB-435): 6.57 µM
GI50 (TK-10 renal): 4.03 µM
TGI (TK-10 renal): 23.3 µM
GI50 (IGROV1 ovarian): 2.09 µM
TGI (IGROV1 ovarian): 7.21 µM
GI50 (NCI-H23 lung): 3.22 µM
TGI (NCI-H23 lung): 14.5 µM
GI50 (A549 NSCLC): 3.11 µM
TGI (A549 NSCLC): > 100 µM
GI50 (SF-539 CNS): 2.4 µM
TGI (SF-539 CNS): 6.87 µM
GI50 (T-47D breast): 2.58 µM
TGI (T-47D breast): 9.08 µM
GI50 (PC-3 prostate): 2.35 µM
TGI (PC-3 prostate): 61.8 µM
GI50 (MCF7 breast): 2.65 µM
TGI (MCF7 breast): 86.5 µM
GI50 (RPMI-8226 leukemia): 0.457 µM
TGI (RPMI-8226 leukemia): 2.95 µM
GI50 (A498 renal): 5.54 µM
TGI (A498 renal): 20.8 µM
GI50 (COLO 205 colon): 2.78 µM
TGI (COLO 205 colon): 10 µM
GI50 (HOP-92 NSCLC): 2.97 µM
TGI (HOP-92 NSCLC): 9.91 µM
GI50 (NCI-H226 lung): 2.66 µM
TGI (NCI-H226 lung): 7.25 µM
GI50 (SW-620 colon): 2.77 µM
TGI (SW-620 colon): 9.53 µM
GI50 (HT29 colon): 3.1 µM
TGI (HT29 colon): 13.8 µM
GI50 (OVCAR-3 ovarian): 2.94 µM
TGI (OVCAR-3 ovarian): 11.5 µM
GI50 (EKVX NSCLC): 3.65 µM
TGI (EKVX NSCLC): 25.8 µM
GI50 (SN12C renal): 2.55 µM
TGI (SN12C renal): 8.95 µM
GI50 (SF-268 CNS): 3.49 µM
TGI (SF-268 CNS): 21.3 µM
GI50 (HS 578T breast): 4.22 µM
TGI (HS 578T breast): > 100 µM
GI50 (SNB-75 CNS): 3.09 µM
TGI (SNB-75 CNS): 86.6 µM
GI50 (OVCAR-8 ovarian): 3.16 µM
TGI (OVCAR-8 ovarian): > 100 µM
GI50 (DU-145 prostate): 3.64 µM
TGI (DU-145 prostate): 26 µM
GI50 (KM12 colon): 2.89 µM
TGI (KM12 colon): 10.8 µM
GI50 (UACC-62 melanoma): 1.88 µM
TGI (UACC-62 melanoma): 3.88 µM
GI50 (HCC-2998 colon): 2.18 µM
TGI (HCC-2998 colon): 4.48 µM
GI50 (M14 melanoma): 2.39 µM
TGI (M14 melanoma): 8.93 µM
GI50 (OVCAR-5 ovarian): 3.64 µM
TGI (OVCAR-5 ovarian): 12.8 µM
GI50 (SK-MEL-28 melanoma): 2.63 µM
TGI (SK-MEL-28 melanoma): 7.37 µM
GI50 (ACHN renal): 1.78 µM
TGI (ACHN renal): 3.96 µM
GI50 (786-0 renal): 2.95 µM
TGI (786-0 renal): 10.7 µM
GI50 (U251 CNS): 2.66 µM
TGI (U251 CNS): 11.2 µM
GI50 (CAKI-1 renal): 2.42 µM
TGI (CAKI-1 renal): 11.3 µM
GI50 (NCI-H460 lung): 2.4 µM
TGI (NCI-H460 lung): 5.75 µM
GI50 (HCT-15 colon): 1.74 µM
TGI (HCT-15 colon): 5.51 µM
GI50 (SK-OV-3 ovarian): 3.24 µM
TGI (SK-OV-3 ovarian): > 100 µM
GI50 (LOX IMVI melanoma): 1.78 µM
TGI (LOX IMVI melanoma): 3.49 µM
GI50 (SK-MEL-5 melanoma): 2.25 µM
TGI (SK-MEL-5 melanoma): 5.33 µM
GI50 (MALME-3M melanoma): 1.77 µM
TGI (MALME-3M melanoma): 4.34 µM
GI50 (UO-31 renal): 1.42 µM
TGI (UO-31 renal): 3.02 µM
GI50 (HL-60(TB) leukemia): 2.4 µM
TGI (HL-60(TB) leukemia): 6.71 µM
GI50 (NCI-H522 lung): 0.933 µM
TGI (NCI-H522 lung): 3.22 µM
GI50 (MDA-MB-231 breast): 2.22 µM
TGI (MDA-MB-231 breast): 7.43 µM
GI50 (OVCAR-4 ovarian): 2.74 µM
TGI (OVCAR-4 ovarian): 17.8 µM
GI50 (MOLT-4 leukemia): 1.87 µM
TGI (MOLT-4 leukemia): > 100 µM
GI50 (SF-295 CNS): 8.1 µM
TGI (SF-295 CNS): > 100 µM
GI50 (HOP-62 NSCLC): 3.12 µM
TGI (HOP-62 NSCLC): 20 µM
GI50 (RXF 393 renal): 1.87 µM
TGI (RXF 393 renal): 3.54 µM
GI50 (UACC-257 melanoma): 2.88 µM
TGI (UACC-257 melanoma): 18.3 µM
GI50 (BT-549 breast): 4.03 µM
TGI (BT-549 breast): 12 µM
GI50 (SK-MEL-2 melanoma): 4.7 µM
TGI (SK-MEL-2 melanoma): 31.1 µM

C#CC[C@@H]1C[C@]2(C)[C@H]3CC[C@@H]4[C@H]5C(C(=C)C)CC[C@]5(C(=O)NCCCCCCCCN)CC[C@@]4(C)[C@]3(C)CC[C@H]2C(C)(C)[C@H]1OC(C)=O (stereo partly drawn)
GI50 (A498 renal): 2.25 µM
TGI (A498 renal): 5.35 µM
GI50 (SW-620 colon): 1.71 µM
TGI (SW-620 colon): 3.31 µM
GI50 (KM12 colon): 1.73 µM
TGI (KM12 colon): 3.22 µM
GI50 (UO-31 renal): 1.46 µM
TGI (UO-31 renal): 2.84 µM

O=C1C=CC(=C(c2ccccc2)c2ccc(O)cc2)C=C1
TGI (SNB-19 CNS): 31.7 µM
TGI (HCT-116 colon): > 100 µM
TGI (K-562 leukemia): 68.1 µM
TGI (MDA-MB-435): 32.5 µM
TGI (TK-10 renal): 37.4 µM
TGI (IGROV1 ovarian): 22.5 µM
TGI (NCI-H23 lung): 42.9 µM
TGI (A549 NSCLC): 36.8 µM
TGI (CCRF-CEM leukemia): > 100 µM
TGI (SF-539 CNS): 30.8 µM
TGI (PC-3 prostate): 47.5 µM
TGI (MCF7 breast): 37.1 µM
TGI (RPMI-8226 leukemia): > 100 µM
TGI (COLO 205 colon): 49.7 µM
TGI (HOP-92 NSCLC): 36.1 µM
TGI (NCI-H226 lung): 38 µM
TGI (SW-620 colon): 90.9 µM
TGI (HT29 colon): 43.4 µM
TGI (OVCAR-3 ovarian): 32.5 µM
TGI (EKVX NSCLC): 35.9 µM
TGI (SN12C renal): 29.7 µM
TGI (SF-268 CNS): 43.3 µM
TGI (HS 578T breast): 47.7 µM
TGI (SNB-75 CNS): 38.2 µM
TGI (OVCAR-8 ovarian): 44.1 µM
TGI (DU-145 prostate): 53.6 µM
TGI (KM12 colon): 41.5 µM
TGI (SR leukemia): 40.8 µM
TGI (UACC-62 melanoma): 28.9 µM
TGI (NCI/ADR-RES ovarian): > 100 µM
TGI (HCC-2998 colon): 63.9 µM
TGI (M14 melanoma): 91.6 µM
TGI (OVCAR-5 ovarian): 49.7 µM
TGI (SK-MEL-28 melanoma): 31.9 µM
TGI (ACHN renal): 39.2 µM
TGI (786-0 renal): > 100 µM
TGI (U251 CNS): 29.2 µM
TGI (CAKI-1 renal): 32.1 µM
TGI (NCI-H460 lung): 41.7 µM
TGI (HCT-15 colon): 35.3 µM
TGI (LOX IMVI melanoma): 17.9 µM
TGI (SK-MEL-5 melanoma): 26.4 µM
TGI (MALME-3M melanoma): 28.6 µM
TGI (UO-31 renal): 29.5 µM
TGI (HL-60(TB) leukemia): 47.2 µM
TGI (NCI-H522 lung): 28.2 µM
TGI (MDA-MB-231 breast): 32.4 µM
TGI (OVCAR-4 ovarian): 30.2 µM
TGI (MOLT-4 leukemia): > 100 µM
TGI (SF-295 CNS): 39.6 µM
TGI (HOP-62 NSCLC): > 100 µM
TGI (RXF 393 renal): 30.5 µM
TGI (UACC-257 melanoma): 31.7 µM
TGI (BT-549 breast): 18.7 µM
TGI (SK-MEL-2 melanoma): 32 µM
